Experimental findings from patent US9382228B2 (priority 2013, dated 2016) are described below.

The target in assay [1] is unphosphorylated PDGFRβ kinase (uPDGFRβ, Seq. ID No. 3) (Homo sapiens, UniProt P09619). The experiment in a line: biochemical.
The subject of a further assay is M-NFS-60 cells. The experiment in a line: cells. The conditions noted are these: 67 h, read-out: M-NFS-60 cell proliferation.
Assay [2] has as its target unphosphorylated c-KIT kinase (uKIT, Seq. ID no. 2) (Homo sapiens, UniProt P10721). The experiment in a line: biochemical.
Procedure: uKit kinase (Seq. ID No. 2) Assay
In this assay, the oxidation of NADH (thus the decrease at A340 nm) was continuously monitored spectrophometrically. […] The inhibition reaction was started by mixing serial diluted test compound with the above reaction mixture. The absorption at 340 nm was monitored continuously for 4 hours at 30° C. on Synergy 2 plate reader (BioTech).
Assay [3] concerns phospho-FMS in THP-1 cells. The experiment in a line: cells. The conditions noted are these: Homo sapiens, THP-1, read-out: pFMS inhibition in THP-1 cells.
The target of assay [4] is T1, unphosphorylated c-FMS kinase (uFMS, Seq. ID no. 1) (Homo sapiens, UniProt P07333).
T1 sequence (P07333 538-972): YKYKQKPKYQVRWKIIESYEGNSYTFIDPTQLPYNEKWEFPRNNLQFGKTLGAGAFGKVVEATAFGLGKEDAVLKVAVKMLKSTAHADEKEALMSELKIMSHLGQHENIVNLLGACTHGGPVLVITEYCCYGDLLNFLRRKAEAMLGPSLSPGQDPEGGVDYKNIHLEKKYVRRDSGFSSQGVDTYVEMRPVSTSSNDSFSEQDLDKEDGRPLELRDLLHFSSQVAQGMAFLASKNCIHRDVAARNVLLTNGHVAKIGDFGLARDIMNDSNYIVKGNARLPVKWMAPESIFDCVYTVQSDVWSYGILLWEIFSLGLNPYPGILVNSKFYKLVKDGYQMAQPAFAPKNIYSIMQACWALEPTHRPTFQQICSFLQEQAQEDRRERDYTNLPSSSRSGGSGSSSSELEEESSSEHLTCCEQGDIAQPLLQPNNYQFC
The experiment in a line: biochemical.
Procedure: In this assay, the oxidation of NADH (thus the decrease at A340 nm) was continuously monitored spectrophometrically. The reaction mixture (100 μL) contained FMS (purchased from Millipore) (10 nM), polyE4Y (1 mg/mL), MgCl2 (10 mM), pyruvate kinase (4 units), lactate dehydrogenase (0.7 units), phosphoenol pyruvate (1 mM), NADH (0.28 mM) and ATP (500 μM) in 90 mM Tris buffer containing 0.2% octyl-glucoside and 1% DMSO, pH 7.5. The inhibition reaction was started by mixing serial diluted test compound with the above reaction mixture. The absorption at 340 nm was monitored continuously for 4 hours at 30° C. on Synergy 2 plate reader. The reaction rate was calculated using the 3 to 4 h time frame. Percent inhibition was obtained by comparison of reaction rate with that of a control (i.e. in the absence of test compound). IC50 values were calculated from a series of percent inhibition values determined at a range of inhibitor concentrations using software routines as implemented in the GraphPad Prism software package.

A further assay relates to osteoclast precursors. The experiment in a line: cells. In kind it is cell-based. The following applies: read-out: Osteoclast assay.
Where [5] appears, read: uPDGFRb, enzymatic assay, ATP 500 μM.
The mark [6] stands for this setting: uKIT, enzymatic assay, ATP 2000 μM.
Where [7] appears, read: uFMS, enzymatic assay, ATP 500 μM.

SMILES strings stand for the structures.

unphosphorylated PDGFRβ kinase (uPDGFRβ, Seq. ID No. 3), sequence (P09619 557-1106): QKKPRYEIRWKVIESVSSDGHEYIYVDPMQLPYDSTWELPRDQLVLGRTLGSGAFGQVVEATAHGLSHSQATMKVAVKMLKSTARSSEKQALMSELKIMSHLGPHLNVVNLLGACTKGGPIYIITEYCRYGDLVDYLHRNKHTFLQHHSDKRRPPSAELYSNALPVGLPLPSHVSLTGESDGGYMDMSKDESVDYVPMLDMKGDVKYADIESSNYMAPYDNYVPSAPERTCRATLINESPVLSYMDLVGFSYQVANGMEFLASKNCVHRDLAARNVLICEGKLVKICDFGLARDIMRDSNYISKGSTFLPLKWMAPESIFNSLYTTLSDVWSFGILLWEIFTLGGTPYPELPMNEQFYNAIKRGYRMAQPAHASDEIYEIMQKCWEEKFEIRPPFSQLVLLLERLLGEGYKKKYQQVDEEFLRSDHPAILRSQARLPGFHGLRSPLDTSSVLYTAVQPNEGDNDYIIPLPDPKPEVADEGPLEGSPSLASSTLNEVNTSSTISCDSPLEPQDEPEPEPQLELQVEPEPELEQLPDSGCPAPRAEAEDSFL
unphosphorylated c-KIT kinase (uKIT, Seq. ID no. 2), sequence (P10721 with tags, fused parts or gaps): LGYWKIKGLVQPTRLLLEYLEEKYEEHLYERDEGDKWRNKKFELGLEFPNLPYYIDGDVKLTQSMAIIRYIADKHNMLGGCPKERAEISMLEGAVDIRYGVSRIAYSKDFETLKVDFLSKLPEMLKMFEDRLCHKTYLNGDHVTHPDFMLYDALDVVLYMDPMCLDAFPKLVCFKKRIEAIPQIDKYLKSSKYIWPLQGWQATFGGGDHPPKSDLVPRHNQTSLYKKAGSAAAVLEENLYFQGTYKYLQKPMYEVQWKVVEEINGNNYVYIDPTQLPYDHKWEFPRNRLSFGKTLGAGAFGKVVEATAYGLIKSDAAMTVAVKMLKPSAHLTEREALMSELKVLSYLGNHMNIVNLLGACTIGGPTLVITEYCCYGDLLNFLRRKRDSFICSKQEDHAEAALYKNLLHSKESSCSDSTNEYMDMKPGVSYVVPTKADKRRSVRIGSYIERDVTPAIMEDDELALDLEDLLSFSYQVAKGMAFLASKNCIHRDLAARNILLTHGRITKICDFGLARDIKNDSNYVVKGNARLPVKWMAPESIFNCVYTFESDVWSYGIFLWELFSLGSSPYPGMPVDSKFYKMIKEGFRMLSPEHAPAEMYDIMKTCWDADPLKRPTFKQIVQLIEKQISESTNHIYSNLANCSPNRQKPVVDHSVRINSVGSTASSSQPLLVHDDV
Procedure for M-NFS-60 cells: M-NFS-6 Cell Proliferation Assay
A serial dilution of test compound was dispensed into a 384-well black clear bottom plate (Corning, Corning, N.Y.). Two thousand five hundred cells were added per well in 50 μL complete growth medium. […] IC50 values were calculated from a series of percent inhibition values determined at a range of inhibitor concentrations using software routines as implemented in the GraphPad Prism software package.

`Cn1cc(-c2cc(Oc3ccc(NC(=O)NC(=O)CC4CCOCC4)nc3)ccn2)cn1` [Example 4, N-((5-((2-(1-methyl-1H-pyrazol-4-yl)pyridin-4-yl)oxy)pyridin-2-yl)carbamoyl)-2-(tetrahydro-2H-pyran-4-yl)acetamide]: the IC50 in assay [1] (IC50 (nM) uPDGFRβ, Table 3) is 168 nM; in assay [1] (setting [5]), 100 to 1000 nM; in the assay with M-NFS-60 cells, below 0.01 µM; in assay [2] (IC50 (nM) uKIT, Table 3), 165 nM; in assay [2] (setting [6]) it was 100 to 1000 nM; in assay [3] it was 0.01 to 0.1 µM. Further, the IC50 in assay [4] (IC50 (nM) uFMS, Table 3) was 8 nM; in assay [4] (setting [7]) it was below 10 nM; in the assay with osteoclast precursors, below 0.01 µM.

For `Cc1nc(NC(=O)NC(=O)CCC2(C(F)(F)F)CC2)ccc1Oc1ccnc(-c2cnn(C)c2)c1` [Example 11, N-((6-methyl-5-((2-(1-methyl-1H-pyrazol-4-yl)pyridin-4-yl)oxy)pyridin-2-yl)carbamoyl)-3-(1-(trifluoromethyl)cyclopropyl)propanamide], the IC50 was 10 to 100 nM in assay [1] (setting [5]); below 0.01 µM in the assay on M-NFS-60 cells; below 10 nM in assay [2] (setting [6]); 0.01 to 0.1 µM in assay [3]; below 10 nM in assay [4] (setting [7]); below 0.01 µM in the assay with osteoclast precursors.

For the compound `Cc1nc(NC(=O)NC(=O)C2CCC(F)(F)CC2)ccc1Oc1ccnc(-c2cnn(C)c2)c1` [Example 12, 4,4-difluoro-N-((6-methyl-5-((2-(1-methyl-1H-pyrazol-4-yl)pyridin-4-yl)oxy)pyridin-2-yl)carbamoyl)cyclohexanecarboxamide], the IC50 was 100 to 1000 nM in assay [1] (setting [5]); below 0.01 µM in the assay with M-NFS-60 cells; 10 to 100 nM in assay [2] (setting [6]); 0.01 to 0.1 µM in assay [3]; below 10 nM in assay [4] (setting [7]); below 0.01 µM in the assay on osteoclast precursors.

Regarding `Cc1nc(NC(=O)NC(=O)C2CC(C)(C)C2)ccc1Oc1ccnc(-c2cnn(C)c2)c1` [Example 13, 3,3-dimethyl-N-((6-methyl-5-((2-(1-methyl-1H-pyrazol-4-yl)pyridin-4-yl)oxy)pyridin-2-yl)carbamoyl)cyclobutanecarboxamide], the IC50 is 10 to 100 nM in assay [1] (setting [5]); below 0.01 µM with M-NFS-60 cells; below 10 nM in assay [2] (setting [6]); below 0.01 µM in assay [3]; below 10 nM in assay [4] (setting [7]); below 0.01 µM in the assay on osteoclast precursors.

On to `Cn1cc(-c2cc(Oc3ccc(NC(=O)NC(=O)C(C)(C)C)nc3)ccn2)cn1` [Example 26, N-((5-((2-(1-methyl-1H-pyrazol-4-yl)pyridin-4-yl)oxy)pyridin-2-yl)carbamoyl)pivalamide], for which the IC50 in assay [1] (setting [5]) is 100 to 1000 nM; with M-NFS-60 cells, below 0.01 µM; in assay [2] (setting [6]), 100 to 1000 nM; in assay [3], 0.01 to 0.1 µM; in assay [4] (setting [7]) it was below 10 nM; with osteoclast precursors it was below 0.01 µM.

On to `Cn1cc(-c2cc(Oc3ccc(NC(=O)NC(=O)C4CC5(CCC5)C4)nc3)ccn2)cn1` [Example 31, N-((5-((2-(1-methyl-1H-pyrazol-4-yl)pyridin-4-yl)oxy)pyridin-2-yl)carbamoyl)spiro[3.3]heptane-2-carboxamide], for which the IC50 was below 10 nM in assay [1] (setting [5]); below 0.01 µM in the assay on M-NFS-60 cells; below 10 nM in assay [2] (setting [6]); 0.01 to 0.1 µM in assay [3]; below 10 nM in assay [4] (setting [7]); below 0.01 µM in the assay with osteoclast precursors.

With `Cc1nc(NC(=O)NC(=O)C2CC3(CCC3)C2)ccc1Oc1ccnc(-c2cnn(C)c2)c1` [Example 32, N-((6-methyl-5-((2-(1-methyl-1H-pyrazol-4-yl)pyridin-4-yl)oxy)pyridin-2-yl)carbamoyl)spiro[3.3]heptane-2-carboxamide], the IC50 in assay [1] (setting [5]) was 10 to 100 nM; in the assay on M-NFS-60 cells it was 0.01 to 0.1 µM; in assay [2] (setting [6]) it was below 10 nM; in assay [3], below 0.01 µM; in assay [4] (setting [7]) it was below 10 nM; in the assay on osteoclast precursors it was below 0.01 µM.

On to `Cn1cc(-c2cc(Oc3ccc(NC(=O)NC(=O)C4(C(F)(F)F)CC4)nc3)ccn2)cn1` [Example 33, N-((5-((2-(1-methyl-1H-pyrazol-4-yl)pyridin-4-yl)oxy)pyridin-2-yl)carbamoyl)-1-(trifluoromethyl)cyclopropanecarboxamide], for which the IC50 in assay [1] (setting [5]) is 10 to 100 nM; with M-NFS-60 cells it was 0.01 to 0.1 µM; in assay [2] (setting [6]) it was 100 to 1000 nM; in assay [3], 0.01 to 0.1 µM; in assay [4] (setting [7]), below 10 nM; in the assay with osteoclast precursors it was below 0.01 µM.

Turning to `Cc1nc(NC(=O)NC(=O)C2(C(F)(F)F)CC2)ccc1Oc1ccnc(-c2cnn(C)c2)c1` [Example 34, N-((6-methyl-5-((2-(1-methyl-1H-pyrazol-4-yl)pyridin-4-yl)oxy)pyridin-2-yl)carbamoyl)-1-(trifluoromethyl)cyclopropanecarboxamide], the IC50 in assay [1] (setting [5]) was 100 to 1000 nM; in the assay on M-NFS-60 cells it was 0.01 to 0.1 µM; in assay [2] (setting [6]), 100 to 1000 nM; in assay [3], 0.01 to 0.1 µM; in assay [4] (setting [7]), below 10 nM; in the assay on osteoclast precursors, below 0.01 µM.

For `Cn1cc(-c2cc(Oc3ccc(NC(=O)NC(=O)C(C)(C)C(F)(F)F)nc3)ccn2)cn1` [Example 35, 3,3,3-trifluoro-2,2-dimethyl-N-((5-((2-(1-methyl-1H-pyrazol-4-yl)pyridin-4-yl)oxy)pyridin-2-yl)carbamoyl)propanamide], the IC50 in assay [1] (setting [5]) was 10 to 100 nM; in the assay on M-NFS-60 cells it was 0.01 to 0.1 µM; in assay [2] (setting [6]), 100 to 1000 nM; in assay [3], 0.01 to 0.1 µM; in assay [4] (setting [7]), below 10 nM; with osteoclast precursors, 0.01 to 0.1 µM.

As to `Cc1nc(NC(=O)NC(=O)C(C)(C)C(F)(F)F)ccc1Oc1ccnc(-c2cnn(C)c2)c1` [Example 36, 3,3,3-trifluoro-2,2-dimethyl-N-((6-methyl-5-((2-(1-methyl-1H-pyrazol-4-yl)pyridin-4-yl)oxy)pyridin-2-yl)carbamoyl)propanamide], the IC50 in assay [1] (setting [5]) is 100 to 1000 nM; with M-NFS-60 cells, 0.01 to 0.1 µM; in assay [2] (setting [6]), 100 to 1000 nM; in assay [3], 0.01 to 0.1 µM; in assay [4] (setting [7]), below 10 nM; in the assay on osteoclast precursors, 0.01 to 0.1 µM.

For the compound `Cn1cc(-c2cc(Oc3ccc(NC(=O)NC(=O)C45CC6CC(CC(C6)C4)C5)nc3)ccn2)cn1` [Example 38, N-((5-((2-(1-methyl-1H-pyrazol-4-yl)pyridin-4-yl)oxy)pyridin-2-yl)carbamoyl)adamantane-1-carboxamide], the IC50 in assay [1] (setting [5]) was below 10 nM; with M-NFS-60 cells it was 0.01 to 0.1 µM; in assay [2] (setting [6]), 10 to 100 nM; in assay [3], 0.01 to 0.1 µM; in assay [4] (setting [7]), below 10 nM; in the assay with osteoclast precursors it was 0.01 to 0.1 µM.

Take `CN1CCN(CC(=O)NC(=O)Nc2ccc(Oc3ccnc(-c4cnn(C)c4)c3)cn2)CC1` [Example 49, N-((5-((2-(1-methyl-1H-pyrazol-4-yl)pyridin-4-yl)oxy)pyridin-2-yl)carbamoyl)-2-(4-methylpiperazin-1-yl)acetamide]: the IC50 was above 1000 nM in assay [1] (setting [5]); above 1 µM in the assay on M-NFS-60 cells; above 1000 nM in assay [2] (setting [6]); 0.1 to 1 µM in assay [3]; 10 to 100 nM in assay [4] (setting [7]); 0.1 to 1 µM in the assay with osteoclast precursors.

Take `Cn1cc(-c2cc(Oc3ccc(NC(=O)NC(=O)C4CC4)nc3)ccn2)cn1` [Example 51, N-((5-((2-(1-methyl-1H-pyrazol-4-yl)pyridin-4-yl)oxy)pyridin-2-yl)carbamoyl)cyclopropanecarboxamide]: the IC50 in assay [1] (setting [5]) is above 1000 nM; with M-NFS-60 cells it was 0.01 to 0.1 µM; in assay [2] (setting [6]) it was 100 to 1000 nM; in assay [3], below 0.01 µM; in assay [4] (setting [7]), below 10 nM; with osteoclast precursors, below 0.01 µM.

For `CCn1cc(-c2cc(Oc3ccc(NC(=O)NC(=O)C(C)(C)C)nc3C)ccn2)cn1` [Example 60, N-((5-((2-(1-ethyl-1H-pyrazol-4-yl)pyridin-4-yl)oxy)-6-methylpyridin-2-yl)carbamoyl)pivalamide], the IC50 was above 1000 nM in assay [1] (setting [5]); 0.01 to 0.1 µM in the assay with M-NFS-60 cells; above 1000 nM in assay [2] (setting [6]); below 0.01 µM in assay [3]; below 10 nM in assay [4] (setting [7]); 0.01 to 0.1 µM with osteoclast precursors.

For `CCn1cc(-c2cc(Oc3ccc(NC(=O)NC(=O)C(C)C)nc3C)ccn2)cn1` [Example 61, N-((5-((2-(1-ethyl-1H-pyrazol-4-yl)pyridin-4-yl)oxy)-6-methylpyridin-2-yl)carbamoyl)isobutyramide], the IC50 in assay [1] (setting [5]) was above 1000 nM; with M-NFS-60 cells, 0.01 to 0.1 µM; in assay [2] (setting [6]), above 1000 nM; in assay [3], below 0.01 µM; in assay [4] (setting [7]), below 10 nM; in the assay with osteoclast precursors, below 0.01 µM.

As to `Cn1cc(-c2cc(Oc3ccc(NC(=O)NC(=O)C4CCOC4)nc3)ccn2)cn1` (stereo not drawn) [Example 66, N-((5-((2-(1-methyl-1H-pyrazol-4-yl)pyridin-4-yl)oxy)pyridin-2-yl)carbamoyl)tetrahydrofuran-3-carboxamide], the IC50 in assay [1] (setting [5]) is above 1000 nM; in the assay on M-NFS-60 cells, 0.01 to 0.1 µM; in assay [2] (setting [6]), 100 to 1000 nM; in assay [3] it was below 0.01 µM; in assay [4] (setting [7]) it was below 10 nM; in the assay with osteoclast precursors, below 0.01 µM.
